Test systems include CAKI-1 renal; IGROV1 ovarian; NCI-H522 lung; HS 578T breast; HOP-62 NSCLC; ACHN renal; A498 renal; MCF7 breast; HCT-116 colon; SK-OV-3 ovarian.
What all share (test): NCI tumour cell line growth inhibition, 48 h

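Results reflect a 48-hour exposure of cells in 96-well plates to compound at five concentrations. The concentration for 50% growth inhibition is given as GI50. The concentration for full growth arrest is given as TGI.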

For `CN1C(=O)c2ccccc2NC(=O)C12O[C@@H]2c1cccc(O)c1` (some centres undefined), the TGI in the test with CAKI-1 renal, in the test on IGROV1 ovarian, in the test with NCI-H522 lung, in the test with HS 578T breast, in the test with HOP-62 NSCLC and in the test on ACHN renal was greater than 100 µM throughout. Besides, the TGI in the test on A498 renal, in the test on MCF7 breast and in the test with HCT-116 colon was greater than 100 µM each time.

Regarding `C=C[C@H]1C[C@@H]2C[C@@H]3[C@H]4C/C=C\C(=O)NCCCC5NC(=O)C(=C(O)/C=C/[C@@H]4CC(=O)[C@H]3[C@@H]2[C@H]1C)C5=O` (some centres undefined), the GI50 was 0.191 µM in the test on CAKI-1 renal; 0.212 µM in the test on IGROV1 ovarian; 0.191 µM in the test on HS 578T breast; 0.165 µM in the test on HOP-62 NSCLC; 0.18 µM in the test on ACHN renal; 0.242 µM in the test with SK-OV-3 ovarian. Also, the GI50 in the test with A498 renal is 0.175 µM; in the test on MCF7 breast, 1.24 µM; in the test on HCT-116 colon, 0.287 µM. In addition, the TGI with CAKI-1 renal turned out to be 0.374 µM; in the test with IGROV1 ovarian it was 0.434 µM; in the test with HS 578T breast it was 0.423 µM; with HOP-62 NSCLC, 0.31 µM; in the test on ACHN renal it was 0.343 µM; with SK-OV-3 ovarian, 0.606 µM. The TGI in the test with A498 renal came to 0.369 µM; with MCF7 breast it was 2.8 µM; with HCT-116 colon, 1.1 µM.

On to `O=C(O)[C@@H]1CCCCN1Cc1cc2cc3c(cc2c2cc(OCc4ccccc4)ccc12)OCO3`, for which the GI50 is 3.6 µM with CAKI-1 renal; 6.53 µM with IGROV1 ovarian; 4.89 µM with NCI-H522 lung; 2.29 µM in the test with HS 578T breast; 16.1 µM with HOP-62 NSCLC; 2.73 µM in the test on ACHN renal. The GI50 in the test with SK-OV-3 ovarian was 6.47 µM; in the test on MCF7 breast, 2.05 µM; in the test on HCT-116 colon, 17.4 µM. The TGI amounted to 33.7 µM with CAKI-1 renal; 21.4 µM with IGROV1 ovarian; 18.4 µM in the test on NCI-H522 lung; 6.94 µM with HS 578T breast; 31.6 µM with HOP-62 NSCLC; 10.3 µM in the test with ACHN renal. Also, the TGI in the test with SK-OV-3 ovarian stood at 34.3 µM; in the test on MCF7 breast it was 16.5 µM; with HCT-116 colon, 31.1 µM.

Turning to `CNc1nc(N)c(N=O)c(Nc2ccc(Br)cc2)n1`, the TGI in the test with IGROV1 ovarian is greater than 100 µM; in the test on NCI-H522 lung it was greater than 100 µM; with HS 578T breast it was 65 µM; in the test with HOP-62 NSCLC it was greater than 100 µM; in the test on ACHN renal, greater than 100 µM; with MCF7 breast, greater than 100 µM. Moreover, in the test with HCT-116 colon, the TGI was greater than 100 µM.

With `CC1(C)N=C(N)N=C(N)N1c1ccc(OCc2ccc(S(=O)(=O)F)c(Cl)c2)c(Cl)c1`, the GI50 was 0.123 µM with IGROV1 ovarian; 3.28 µM in the test on NCI-H522 lung; 7.93 µM with HOP-62 NSCLC; 5.48 µM in the test on ACHN renal; greater than 100 µM in the test with SK-OV-3 ovarian; greater than 100 µM with A498 renal. Besides, the GI50 in the test on MCF7 breast is 0.641 µM; in the test with HCT-116 colon it was 0.51 µM. For the same molecule, the TGI in the test with IGROV1 ovarian, in the test on NCI-H522 lung, with HOP-62 NSCLC, in the test with ACHN renal, with SK-OV-3 ovarian and in the test with A498 renal was greater than 100 µM in each case. Besides, the TGI with MCF7 breast and in the test on HCT-116 colon was greater than 100 µM each time.

For the molecule `c1cc2c(ncc3cscc32)s1`, the TGI in the test with CAKI-1 renal is greater than 100 µM; with IGROV1 ovarian it was greater than 31.6 µM; in the test with NCI-H522 lung it was greater than 100 µM; in the test on HS 578T breast, greater than 100 µM; in the test with HOP-62 NSCLC it was greater than 100 µM; in the test with ACHN renal, greater than 100 µM. Moreover, the figures for the TGI with A498 renal, in the test with MCF7 breast and in the test with HCT-116 colon were greater than 100 µM, greater than 100 µM and greater than 31.6 µM, respectively.

Take `CC(C)CCCC(=O)CCCCCCC(=O)CCN(O)C(=O)C(N)CO` (centres undefined): the TGI worked out at 39.4 µM in the test on CAKI-1 renal; 31.9 µM in the test on IGROV1 ovarian; 68.8 µM in the test with HS 578T breast; 40.8 µM in the test with HOP-62 NSCLC; 34.9 µM in the test with ACHN renal; 35.6 µM in the test on SK-OV-3 ovarian. Besides, the TGI was determined as 31.8 µM in the test with A498 renal, 44.7 µM in the test on MCF7 breast and 38 µM in the test on HCT-116 colon.

For `COc1cc2c(c(OC)c1OC)C(=O)[C@@H]1c3ccc([N+](=O)[O-])cc3C(=O)N(CCCBr)[C@H]21`, the GI50 with CAKI-1 renal was 2 µM; in the test with IGROV1 ovarian, 3.41 µM; with NCI-H522 lung, 4.18 µM; in the test with HS 578T breast, 5.71 µM; in the test with HOP-62 NSCLC, 13.9 µM; in the test on ACHN renal, 15.2 µM. The GI50 is 22.3 µM in the test with SK-OV-3 ovarian, 4.71 µM in the test on MCF7 breast and 4.59 µM with HCT-116 colon. For the same molecule, the TGI in the test on CAKI-1 renal was determined as 14.2 µM; in the test on IGROV1 ovarian, 21.3 µM; with NCI-H522 lung, 25.2 µM; in the test with HS 578T breast, 35.5 µM; with HOP-62 NSCLC, 41.4 µM; in the test on ACHN renal, 58.5 µM. The TGI with SK-OV-3 ovarian was 74.5 µM; with MCF7 breast, greater than 100 µM; in the test on HCT-116 colon, 51 µM.
